One experiment deals with Her2 (Homo sapiens, UniProt P04626). In words: Elution of Her2 from ATP-Sepharose column by compound (Proteome Mining), IC50 estimate. It is filed as binding. To be noted: estimated from percent of protein eluted from ATP-Sepharose column, gel densitometry; read-out: Approximate IC50 for Her2. The procedure: A proteome containing a known quantity of Her2, EGFR, and B-Raf was run over an ATP-Sepharose™ column in order to bind all purine-binding proteins. […] The ATP-Sepharose™ was washed several times, and then eluted with the compound of Formula III. The experiment was run in duplicate at concentrations of 20 μM, 100 μM, and 500 μM of the compound of Formula III. The eluted fractions were run on a 1-dimensional SDS polyacrylamide gel. Gels were stained with a fluorescent stain such as sypro ruby (a highly sensitive fluorescent protein stain that can readily detect less than 1 fmol of total protein, i.e., less than 0.04 ng for a 40 kDa protein). The gels were imaged using a standard flat bed gel imager and the amount of protein estimated by densiometry. The percent of protein eluted from the column at each concentration was determined and IC50 values were calculated from these estimates. Where necessary, the eluted proteins were cut out of the gel, and identified using mass spectral techniques.
Chain of Her2 (P04626 23-1255, species assumed): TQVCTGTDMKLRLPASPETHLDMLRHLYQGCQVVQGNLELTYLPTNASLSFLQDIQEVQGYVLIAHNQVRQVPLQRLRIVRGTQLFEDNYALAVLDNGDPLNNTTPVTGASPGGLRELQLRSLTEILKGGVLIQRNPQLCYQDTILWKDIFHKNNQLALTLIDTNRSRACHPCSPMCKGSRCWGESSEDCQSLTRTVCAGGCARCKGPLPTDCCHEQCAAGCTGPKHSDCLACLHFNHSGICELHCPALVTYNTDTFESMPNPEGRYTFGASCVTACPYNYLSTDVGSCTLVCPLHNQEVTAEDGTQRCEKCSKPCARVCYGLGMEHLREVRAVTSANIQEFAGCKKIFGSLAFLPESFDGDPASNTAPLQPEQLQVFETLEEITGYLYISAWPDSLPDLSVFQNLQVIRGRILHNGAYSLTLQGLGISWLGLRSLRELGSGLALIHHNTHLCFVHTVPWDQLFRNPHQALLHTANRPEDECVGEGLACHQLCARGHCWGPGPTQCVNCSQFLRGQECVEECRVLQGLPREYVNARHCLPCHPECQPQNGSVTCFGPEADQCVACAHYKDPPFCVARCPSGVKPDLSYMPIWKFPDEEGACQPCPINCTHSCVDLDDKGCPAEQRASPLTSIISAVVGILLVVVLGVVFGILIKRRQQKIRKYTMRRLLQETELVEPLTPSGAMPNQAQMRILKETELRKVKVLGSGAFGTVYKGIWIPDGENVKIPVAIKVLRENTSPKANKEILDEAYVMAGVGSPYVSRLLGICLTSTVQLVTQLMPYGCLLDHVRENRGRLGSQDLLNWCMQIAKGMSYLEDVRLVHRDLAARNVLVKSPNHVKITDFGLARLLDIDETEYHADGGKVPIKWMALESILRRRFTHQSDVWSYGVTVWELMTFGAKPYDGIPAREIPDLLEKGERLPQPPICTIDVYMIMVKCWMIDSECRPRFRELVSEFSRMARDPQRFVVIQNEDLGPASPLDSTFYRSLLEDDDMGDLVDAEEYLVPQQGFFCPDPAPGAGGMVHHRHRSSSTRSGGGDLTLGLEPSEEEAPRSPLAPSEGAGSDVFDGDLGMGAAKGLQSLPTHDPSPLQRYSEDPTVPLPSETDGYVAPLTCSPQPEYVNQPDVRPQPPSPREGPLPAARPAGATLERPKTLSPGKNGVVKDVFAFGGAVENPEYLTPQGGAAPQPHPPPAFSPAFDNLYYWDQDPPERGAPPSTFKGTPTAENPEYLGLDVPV

The target in experiment [1] is T1, propionyl-CoA carboxylase subunit alpha (PCCA) (Sus scrofa, UniProt P0DTA4).
T1 construct: a porcine liver proteome was run over an ATP-Sepharose™ column; from tissue; host or cells: porcine liver
T1 sequence (P0DTA4 53-730): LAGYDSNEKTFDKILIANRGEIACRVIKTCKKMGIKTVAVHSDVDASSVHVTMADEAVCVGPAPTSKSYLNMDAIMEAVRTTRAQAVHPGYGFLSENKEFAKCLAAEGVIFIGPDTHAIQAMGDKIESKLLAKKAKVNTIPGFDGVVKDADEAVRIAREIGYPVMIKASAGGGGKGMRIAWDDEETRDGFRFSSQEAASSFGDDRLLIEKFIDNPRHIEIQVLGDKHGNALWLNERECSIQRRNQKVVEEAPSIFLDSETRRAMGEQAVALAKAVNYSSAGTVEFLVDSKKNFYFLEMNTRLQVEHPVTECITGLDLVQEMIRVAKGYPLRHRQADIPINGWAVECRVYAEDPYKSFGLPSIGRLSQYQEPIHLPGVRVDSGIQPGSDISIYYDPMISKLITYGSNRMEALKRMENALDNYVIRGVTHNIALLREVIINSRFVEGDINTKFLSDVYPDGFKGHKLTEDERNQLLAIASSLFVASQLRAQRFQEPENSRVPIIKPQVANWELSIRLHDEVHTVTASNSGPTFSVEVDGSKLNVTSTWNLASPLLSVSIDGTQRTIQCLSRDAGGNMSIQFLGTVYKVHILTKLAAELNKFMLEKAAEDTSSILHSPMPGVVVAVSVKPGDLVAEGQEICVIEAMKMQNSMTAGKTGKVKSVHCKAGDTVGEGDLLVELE
T1 sequence (P79384 29-539 partner): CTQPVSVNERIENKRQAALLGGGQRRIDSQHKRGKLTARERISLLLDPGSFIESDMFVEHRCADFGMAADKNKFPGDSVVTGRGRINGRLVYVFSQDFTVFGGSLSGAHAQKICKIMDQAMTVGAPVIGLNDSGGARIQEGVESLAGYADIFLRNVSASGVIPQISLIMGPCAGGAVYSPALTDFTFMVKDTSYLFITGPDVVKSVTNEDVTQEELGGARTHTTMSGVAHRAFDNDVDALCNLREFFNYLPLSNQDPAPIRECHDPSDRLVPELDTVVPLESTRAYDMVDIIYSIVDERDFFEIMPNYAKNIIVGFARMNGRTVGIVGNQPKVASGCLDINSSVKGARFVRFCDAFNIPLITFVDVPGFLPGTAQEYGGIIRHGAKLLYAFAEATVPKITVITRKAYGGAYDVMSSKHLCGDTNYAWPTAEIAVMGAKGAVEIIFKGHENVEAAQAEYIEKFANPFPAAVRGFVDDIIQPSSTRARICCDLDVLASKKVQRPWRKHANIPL
Briefly: Elution of PCCA from ATP-Sepharose column loaded with porcine liver proteome, IC50 estimate. The conditions noted are these: estimated from percent of protein eluted from ATP-Sepharose column, read-out: Approximate IC50 for PCCA. It is filed as binding. The procedure: (§1) Similar experiments were carried out to compare the IC50 values for PYC, PCCA, and PCCB. In these trials, a porcine liver proteome was run over an ATP-Sepharose™ column to bind all purine-binding proteins. The ATP-Sepharose™ column was washed several times, and then eluted with the compound of Formula III at concentrations of 1 μM, 5 μM, 10 μM, 50 μM, 100 μM, and 500 μM to identify proteins that bound to this compound.
(§2) Gels were stained with a fluorescent stain such as sypro ruby (a highly sensitive fluorescent protein stain that can readily detect less than 1 fmol of total protein, i.e., less than 0.04 ng for a 40 kDa protein). The gels were imaged using a standard flat bed gel imager and the amount of protein estimated by densiometry. The percent of protein eluted from the column at each concentration was determined and IC50 values were calculated from these estimates. Where necessary, the eluted proteins were cut out of the gel, and identified using mass spectral techniques.
(§3) The values obtained were then compared to those for DHFR.

In experiment [2] the target is T2, propionyl-CoA carboxylase subunit beta (PCCB) (Sus scrofa, UniProt P79384).
T2 construct: a porcine liver proteome was run over an ATP-Sepharose™ column; from tissue; host or cells: porcine liver
T2 sequence (P79384 29-539): T1 sequence (P79384 29-539 partner)
T2 sequence (P0DTA4 53-730 partner): T1 sequence (P0DTA4 53-730)
Briefly: Elution of PCCB from ATP-Sepharose column loaded with porcine liver proteome, IC50 estimate. It is filed as binding. The conditions noted are these: estimated from percent of protein eluted from ATP-Sepharose column, read-out: Approximate IC50 for PCCB. The procedure: as §1, §2, §3

In experiment [3] the target is T3, pyruvate carboxylase (PYC) (Sus scrofa, UniProt A0A8W4F6F0).
T3 construct: a porcine liver proteome was run over an ATP-Sepharose™ column; from tissue; host or cells: porcine liver
T3 sequence (A0A8W4F6F0 1-1157): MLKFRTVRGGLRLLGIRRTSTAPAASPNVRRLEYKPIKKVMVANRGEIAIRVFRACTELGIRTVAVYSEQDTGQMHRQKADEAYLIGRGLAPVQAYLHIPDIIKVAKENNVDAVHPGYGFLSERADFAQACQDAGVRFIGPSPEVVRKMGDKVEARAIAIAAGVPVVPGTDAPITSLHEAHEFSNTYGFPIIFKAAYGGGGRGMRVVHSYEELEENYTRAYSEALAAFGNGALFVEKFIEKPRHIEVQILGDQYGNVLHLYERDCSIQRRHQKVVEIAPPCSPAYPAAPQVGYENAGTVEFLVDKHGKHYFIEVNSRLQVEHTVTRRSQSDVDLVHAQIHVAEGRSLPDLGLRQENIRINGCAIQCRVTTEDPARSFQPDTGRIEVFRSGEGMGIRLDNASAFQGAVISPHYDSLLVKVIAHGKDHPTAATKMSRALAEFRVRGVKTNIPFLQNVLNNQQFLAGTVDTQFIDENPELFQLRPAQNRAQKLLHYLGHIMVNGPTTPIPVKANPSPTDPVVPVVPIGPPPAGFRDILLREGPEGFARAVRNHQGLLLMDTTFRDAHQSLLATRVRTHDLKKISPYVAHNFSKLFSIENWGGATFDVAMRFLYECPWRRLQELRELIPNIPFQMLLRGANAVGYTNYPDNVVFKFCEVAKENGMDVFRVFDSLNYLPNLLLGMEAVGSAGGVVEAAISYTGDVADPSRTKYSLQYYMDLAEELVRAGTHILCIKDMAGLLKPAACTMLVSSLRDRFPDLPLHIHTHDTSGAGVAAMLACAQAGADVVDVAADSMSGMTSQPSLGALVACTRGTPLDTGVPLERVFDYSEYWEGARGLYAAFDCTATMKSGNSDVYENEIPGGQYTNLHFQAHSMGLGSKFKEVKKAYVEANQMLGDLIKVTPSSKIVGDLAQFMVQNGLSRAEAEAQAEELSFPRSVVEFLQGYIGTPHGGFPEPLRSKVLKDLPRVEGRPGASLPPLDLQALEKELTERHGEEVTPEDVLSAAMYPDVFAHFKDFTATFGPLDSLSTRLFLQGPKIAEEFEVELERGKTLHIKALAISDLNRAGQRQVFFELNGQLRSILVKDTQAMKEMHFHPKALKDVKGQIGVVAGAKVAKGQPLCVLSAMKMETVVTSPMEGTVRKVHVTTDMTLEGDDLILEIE
In words: Elution of PYC from ATP-Sepharose column loaded with porcine liver proteome, IC50 estimate. Type of experiment: binding. To be noted: estimated from percent of protein eluted from ATP-Sepharose column, read-out: Approximate IC50 for PYC. The protocol:
as §1, with “compound. (The amount of protein eluted at the higher concentration ranges plateaued, thus confirming that the entire fraction of bound protein had been eluted.) The eluted fractions were run on a 1-dimensional SDS polyacrylamide gel.” for “compound.”
as §2
These steps were repeated with each of the compounds of Formulas IV-X, MTX, and the c series derivative. The values obtained were then compared to those for DHFR.

Another experiment deals with B-Raf (Homo sapiens, UniProt P15056). In words: Elution of B-Raf from ATP-Sepharose column by compound (Proteome Mining), IC50 estimate. Type of experiment: binding. The conditions noted are these: estimated from percent of protein eluted from ATP-Sepharose column, gel densitometry; read-out: Approximate IC50 for B-Raf. The procedure: (§4) A proteome containing a known quantity of Her2, EGFR, and B-Raf was run over an ATP-Sepharose™ column in order to bind all purine-binding proteins. See, WO 00/63694 and U.S. Provisional Application No. 60/453,697 filed Jan. 22, 2003, each of which is incorporated by reference in its entirety. The ATP-Sepharose™ was washed several times, and then eluted with the compound of Formula III. The experiment was run in duplicate at concentrations of 20 μM, 100 μM, and 500 μM of the compound of Formula III. The eluted fractions were run on a 1-dimensional SDS polyacrylamide gel. Gels were stained with a fluorescent stain such as sypro ruby (a highly sensitive fluorescent protein stain that can readily detect less than 1 fmol of total protein, i.e., less than 0.04 ng for a 40 kDa protein). The gels were imaged using a standard flat bed gel imager and the amount of protein estimated by densiometry. The percent of protein eluted from the column at each concentration was determined and IC50 values were calculated from these estimates. Where necessary, the eluted proteins were cut out of the gel, and identified using mass spectral techniques.
Chain of B-Raf (P15056 whole entry, species assumed): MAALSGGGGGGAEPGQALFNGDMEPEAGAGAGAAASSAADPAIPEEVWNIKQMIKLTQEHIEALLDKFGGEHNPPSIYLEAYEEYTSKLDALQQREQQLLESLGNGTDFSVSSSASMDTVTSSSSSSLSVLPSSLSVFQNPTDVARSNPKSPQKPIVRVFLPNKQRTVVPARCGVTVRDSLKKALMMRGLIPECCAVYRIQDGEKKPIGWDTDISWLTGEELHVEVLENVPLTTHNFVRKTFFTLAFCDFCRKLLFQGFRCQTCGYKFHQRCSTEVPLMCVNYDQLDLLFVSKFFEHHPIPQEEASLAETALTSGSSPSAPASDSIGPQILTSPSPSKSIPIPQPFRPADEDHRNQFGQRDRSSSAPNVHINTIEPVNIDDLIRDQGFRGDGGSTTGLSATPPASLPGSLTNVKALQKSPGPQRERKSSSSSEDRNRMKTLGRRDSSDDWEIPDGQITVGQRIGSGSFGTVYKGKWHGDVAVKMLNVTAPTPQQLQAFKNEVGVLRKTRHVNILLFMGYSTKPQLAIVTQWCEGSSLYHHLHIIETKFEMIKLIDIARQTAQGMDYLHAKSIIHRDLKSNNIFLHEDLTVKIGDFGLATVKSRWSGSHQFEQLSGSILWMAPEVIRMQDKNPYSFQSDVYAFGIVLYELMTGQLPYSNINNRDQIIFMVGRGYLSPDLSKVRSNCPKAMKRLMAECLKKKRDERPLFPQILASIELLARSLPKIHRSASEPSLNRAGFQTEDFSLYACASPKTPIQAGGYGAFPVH
(§5) These steps were repeated with each of the compounds of Formulas IV-X, MTX, and the c series derivative.

The target in another experiment is EGFR (Homo sapiens, UniProt P00533). In words: Elution of EGFR from ATP-Sepharose column by compound (Proteome Mining), IC50 estimate. Type of experiment: binding. To be noted: estimated from percent of protein eluted from ATP-Sepharose column, gel densitometry; read-out: Approximate IC50 for EGFR. The procedure: as §4, §5
Chain of EGFR (P00533 25-1210, species assumed): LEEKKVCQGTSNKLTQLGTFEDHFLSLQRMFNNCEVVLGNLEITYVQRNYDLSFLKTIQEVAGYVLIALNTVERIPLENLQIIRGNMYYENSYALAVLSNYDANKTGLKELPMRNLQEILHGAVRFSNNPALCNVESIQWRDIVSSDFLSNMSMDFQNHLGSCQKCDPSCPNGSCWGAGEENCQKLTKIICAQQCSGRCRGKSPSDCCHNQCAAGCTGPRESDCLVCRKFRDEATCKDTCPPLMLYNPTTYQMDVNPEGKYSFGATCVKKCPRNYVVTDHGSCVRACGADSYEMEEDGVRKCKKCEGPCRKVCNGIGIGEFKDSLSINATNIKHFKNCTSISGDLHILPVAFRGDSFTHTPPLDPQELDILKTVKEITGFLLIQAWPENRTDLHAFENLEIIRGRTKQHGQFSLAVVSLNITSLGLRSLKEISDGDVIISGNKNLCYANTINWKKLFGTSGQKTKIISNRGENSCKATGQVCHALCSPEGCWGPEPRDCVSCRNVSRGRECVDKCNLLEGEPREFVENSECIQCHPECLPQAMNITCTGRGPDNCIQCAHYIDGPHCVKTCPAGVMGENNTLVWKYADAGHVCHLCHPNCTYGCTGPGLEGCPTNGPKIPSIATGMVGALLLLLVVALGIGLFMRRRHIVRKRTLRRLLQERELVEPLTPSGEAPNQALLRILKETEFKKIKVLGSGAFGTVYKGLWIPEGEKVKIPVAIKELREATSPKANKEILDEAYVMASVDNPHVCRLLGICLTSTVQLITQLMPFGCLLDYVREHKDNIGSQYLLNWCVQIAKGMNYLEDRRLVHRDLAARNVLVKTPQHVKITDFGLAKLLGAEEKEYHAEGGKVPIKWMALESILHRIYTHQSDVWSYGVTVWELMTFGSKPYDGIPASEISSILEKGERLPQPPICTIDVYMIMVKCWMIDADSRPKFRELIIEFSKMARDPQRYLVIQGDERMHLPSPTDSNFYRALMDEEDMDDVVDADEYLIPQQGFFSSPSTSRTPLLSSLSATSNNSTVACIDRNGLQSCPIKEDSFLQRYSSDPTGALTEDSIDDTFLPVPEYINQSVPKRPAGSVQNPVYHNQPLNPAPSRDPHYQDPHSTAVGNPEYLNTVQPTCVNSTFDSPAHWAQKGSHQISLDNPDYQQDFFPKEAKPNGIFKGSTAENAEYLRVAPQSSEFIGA
The target in another experiment is T4, DHFR (Homo sapiens, UniProt P00374).
T4 sequence (P00374 1-187): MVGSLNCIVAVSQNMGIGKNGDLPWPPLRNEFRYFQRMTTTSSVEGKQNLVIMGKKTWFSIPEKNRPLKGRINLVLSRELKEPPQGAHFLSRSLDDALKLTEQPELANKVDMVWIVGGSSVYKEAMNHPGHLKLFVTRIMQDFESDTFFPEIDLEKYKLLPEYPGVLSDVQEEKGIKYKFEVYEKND
In words: DHFR enzymatic assay. Type of experiment: biochemical. The conditions noted are these: determined by enzymatic assay.

Take `Cc1cc(C(=O)NC(CCC(=O)O)C(=O)O)ccc1N(Cc1cnc2nc(N)nc(N)c2n1)CC1CC1` (stereo not drawn) [Formula V]: the IC50 (commonly the midpoint of a concentration-inhibition curve) at Her2 is 5 µM; in experiment [1], 2000 nM; in experiment [2], 3.5 µM; in experiment [3] it was 4 µM.

On to `CN(Cc1cnc2nc(N)nc(N)c2n1)c1ccc(C(=O)N[C@@H](CCC(=O)O)C(=O)O)cc1` [MTX, N-[4-[[(2,4-diamino-6-pteridinyl)methyl]methylamino]benzoyl]-L-glutamic acid, reference compound], for which the IC50 is ≥ 10 µM at B-Raf, > 15 µM at EGFR and 0.35 µM in experiment [3].

Consider `CC(C)(C)CN(Cc1cnc2nc(N)nc(N)c2n1)c1ccc(C(=O)NC(CCC(=O)O)C(=O)O)cc1` (stereo not drawn) [Formula X], for which the 50% inhibitory concentration (IC50) in experiment [1] is 2500 nM; in experiment [2] it was 4 µM; against DHFR it was 16 nM; in experiment [3], 4.35 µM.

For the molecule `CC(C)=CCN(Cc1cnc2nc(N)nc(N)c2n1)c1ccc(C(=O)NC(CCC(=O)O)C(=O)O)cc1C` (stereo not drawn) [Formula VI], the values for the IC50 in experiment [1], in experiment [2] and in experiment [3] were 1000 nM, 1 µM and 0.5 µM, respectively.

As to `Cc1cc(C(=O)NC(CCC(=O)O)C(=O)O)ccc1N(Cc1cnc2nc(N)nc(N)c2n1)CC(C)(C)C` (stereo not drawn) [Formula IV], the IC50 in experiment [1] was 6000 nM; in experiment [2], 10 µM; on DHFR, 17 nM; in experiment [3], 5 µM.

The values above are taken from US20060035901A1, “Methotrexate derivatives useful for treating cancer and arthritis” (Serenex, Inc., priority 2004, published 2006).
